Test results from patent US5888475A, “Labeled cocaine analogs” (Emory University, priority 1997, dated 1999).
Like-named read-outs stand apart in the source and are kept apart here.

Columns and labels:
[1] = molecular target: T1, dopamine transporter (Rattus norvegicus, UniProt P23977); assay: In vitro binding: displacement of [3H]WIN 35,428 in rat striatal homogenate; conditions: displacement of [3H]WIN 35,428, rat striatal homogenate; read-out: calculated binding constant with dopamine transporter
T1 construct: in a rat striatal homogenate preparation; from tissue; host or cells: rat striatum (homogenate)
Protocol: (§1) In vivo distribution of a compound of the invention, [^18 F]-2β-carbo-2'-fluoroisopropoxy-3β-(4-iodophenyl)tropane (FIPIT) 8 (X=4-iodophenyl; Y=1'fluoro-isopropoxy) was measured, as well as brain PET imaging to determine suitability of the compound as a label. Also, in vitro binding studies were conducted, measuring the ability of FIPIT to displace [^3 H]WIN 35,428 (III) in a rat striatal homogenate preparation. These studies provided a calculated binding constant for FIPIT 8 with dopamine transporter of 1.13 nM. […] Region of interest measurements determined striatal to cerebellum ratios to be 3.0 at 190 min post administration. In the in vivo distribution studies, the distribution of radioactivity was expressed as percent dose per gram in tissues of unfasted male Sprague Dawley rats at 2 min, 30 min, 60 min and 120 min after intravenous administration of [^18 F] FIPIT 8. The results are shown in Table I. The initial level of accumulation of radioactivity in the striatum, a region rich in dopamine transporters, after injection of [^18 F] FIPIT 8 was high, 0.84% of injected dose/gram at 2 min, and decreased slowly to 0.50% of injected dose/gram at 120 min. […] However, the amount of radioactivity in the cerebellum and cortex at 120 min decreased to only 0.14% dose/gram and 0.26% dose/gram respectively resulting in a striatum to cerebellum ratio of 3.71 and a striatum to cortex ratio of 2.0.

[2] = In vivo tissue distribution of radioactivity after intravenous administration; set-up: species or system Sprague Dawley rats; conditions: rat, i.v.; for tissue uptake at 2 min / tissue uptake at 0.5 h / tissue uptake at 1 h / tissue uptake at 2 h: iv
Protocol: as §1

[3] = Brain PET imaging with [18F]-FIPIT in a rhesus monkey; type: in vivo
Protocol: as §1

T1 sequence (P23977 whole entry): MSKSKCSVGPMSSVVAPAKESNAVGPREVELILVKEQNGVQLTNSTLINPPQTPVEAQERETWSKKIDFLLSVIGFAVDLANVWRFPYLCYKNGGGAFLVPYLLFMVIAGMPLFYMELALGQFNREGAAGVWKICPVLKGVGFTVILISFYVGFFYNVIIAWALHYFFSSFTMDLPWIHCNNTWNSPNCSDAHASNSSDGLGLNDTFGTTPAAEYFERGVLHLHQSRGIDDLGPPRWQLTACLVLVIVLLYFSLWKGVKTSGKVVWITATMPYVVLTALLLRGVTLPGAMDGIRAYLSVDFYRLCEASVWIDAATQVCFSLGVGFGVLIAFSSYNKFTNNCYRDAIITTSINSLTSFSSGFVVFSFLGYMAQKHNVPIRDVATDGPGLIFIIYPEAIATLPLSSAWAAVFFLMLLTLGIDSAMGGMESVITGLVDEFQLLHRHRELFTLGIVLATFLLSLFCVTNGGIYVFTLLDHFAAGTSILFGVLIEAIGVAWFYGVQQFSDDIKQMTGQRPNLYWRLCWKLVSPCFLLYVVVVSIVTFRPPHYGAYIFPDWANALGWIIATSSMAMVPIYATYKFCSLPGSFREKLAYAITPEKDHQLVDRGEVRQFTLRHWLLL

CC(CF)OC(=O)[C@H]1[C@@H](c2ccc(I)cc2)C[C@@H]2CC[C@H]1N2C (stereo partly drawn) [FIPIT 8]
Ki [1]: 1.13 nM

CC(C[18F])OC(=O)[C@H]1[C@@H](c2ccc(I)cc2)C[C@@H]2CC[C@H]1N2C (stereo partly drawn) [[^18 F] FIPIT 8, Fluorine-18 labeled2β-carbo-1'-fluoroisopropoxy-3β-(4-iodophenyl)tropane]
tissue uptake at 2 min ([2]; blood, 2 min, read-out: Blood, Mean % Injected Dose/Gram): 0.14 %ID/g
tissue uptake at 0.5 h ([2]; blood, 30 min, read-out: Blood, Mean % Injected Dose/Gram): 0.03 %ID/g
tissue uptake at 1 h ([2]; blood, 60 min, read-out: Blood, Mean % Injected Dose/Gram): 0.03 %ID/g
tissue uptake at 2 h ([2]; blood, 120 min, read-out: Blood, Mean % Injected Dose/Gram): 0.04 %ID/g
tissue uptake at 2 min ([2]; bone, 2 min, read-out: Bone, Mean % Injected Dose/Gram): 0.28 %ID/g
tissue uptake at 0.5 h ([2]; bone, 30 min, read-out: Bone, Mean % Injected Dose/Gram): 0.21 %ID/g
tissue uptake at 1 h ([2]; bone, 60 min, read-out: Bone, Mean % Injected Dose/Gram): 0.17 %ID/g
tissue uptake at 2 h ([2]; bone, 120 min, read-out: Bone, Mean % Injected Dose/Gram): 0.25 %ID/g
tissue uptake at 2 min ([2]; brain, 2 min, read-out: Brain (B), Mean % Injected Dose/Gram): 0.83 %ID/g
tissue uptake at 0.5 h ([2]; brain, 30 min, read-out: Brain (B), Mean % Injected Dose/Gram): 0.53 %ID/g
tissue uptake at 1 h ([2]; brain, 60 min, read-out: Brain (B), Mean % Injected Dose/Gram): 0.31 %ID/g
tissue uptake at 2 h ([2]; brain, 120 min, read-out: Brain (B), Mean % Injected Dose/Gram): 0.28 %ID/g
tissue uptake at 2 min ([2]; cerebellum, 2 min, read-out: Cerebell (C), Mean % Injected Dose/Gram): 0.76 %ID/g
tissue uptake at 0.5 h ([2]; cerebellum, 30 min, read-out: Cerebell (C), Mean % Injected Dose/Gram): 0.3 %ID/g
tissue uptake at 1 h ([2]; cerebellum, 60 min, read-out: Cerebell (C), Mean % Injected Dose/Gram): 0.16 %ID/g
tissue uptake at 2 h ([2]; cerebellum, 120 min, read-out: Cerebell (C), Mean % Injected Dose/Gram): 0.14 %ID/g
tissue uptake at 2 min ([2]; cortex, 2 min, read-out: Cortex (Cx), Mean % Injected Dose/Gram): 0.98 %ID/g
tissue uptake at 0.5 h ([2]; cortex, 30 min, read-out: Cortex (Cx), Mean % Injected Dose/Gram): 0.53 %ID/g
tissue uptake at 1 h ([2]; cortex, 60 min, read-out: Cortex (Cx), Mean % Injected Dose/Gram): 0.28 %ID/g
tissue uptake at 2 h ([2]; cortex, 120 min, read-out: Cortex (Cx), Mean % Injected Dose/Gram): 0.26 %ID/g
tissue uptake at 2 min ([2]; heart, 2 min, read-out: Heart, Mean % Injected Dose/Gram): 1.7 %ID/g
tissue uptake at 0.5 h ([2]; heart, 30 min, read-out: Heart, Mean % Injected Dose/Gram): 0.14 %ID/g
tissue uptake at 1 h ([2]; heart, 60 min, read-out: Heart, Mean % Injected Dose/Gram): 0.1 %ID/g
tissue uptake at 2 h ([2]; heart, 120 min, read-out: Heart, Mean % Injected Dose/Gram): 0.12 %ID/g
tissue uptake at 2 min ([2]; kidney, 2 min, read-out: Kidney, Mean % Injected Dose/Gram): 2.61 %ID/g
tissue uptake at 0.5 h ([2]; kidney, 30 min, read-out: Kidney, Mean % Injected Dose/Gram): 0.85 %ID/g
tissue uptake at 1 h ([2]; kidney, 60 min, read-out: Kidney, Mean % Injected Dose/Gram): 0.44 %ID/g
tissue uptake at 2 h ([2]; kidney, 120 min, read-out: Kidney, Mean % Injected Dose/Gram): 0.3 %ID/g
tissue uptake at 2 min ([2]; liver, 2 min, read-out: Liver, Mean % Injected Dose/Gram): 1.5 %ID/g
tissue uptake at 0.5 h ([2]; liver, 30 min, read-out: Liver, Mean % Injected Dose/Gram): 3.89 %ID/g
tissue uptake at 1 h ([2]; liver, 60 min, read-out: Liver, Mean % Injected Dose/Gram): 5.2 %ID/g
tissue uptake at 2 h ([2]; liver, 120 min, read-out: Liver, Mean % Injected Dose/Gram): 4.46 %ID/g
tissue uptake at 2 min ([2]; lung, 2 min, read-out: Lung, Mean % Injected Dose/Gram): 6.21 %ID/g
tissue uptake at 0.5 h ([2]; lung, 30 min, read-out: Lung, Mean % Injected Dose/Gram): 0.61 %ID/g
tissue uptake at 1 h ([2]; lung, 60 min, read-out: Lung, Mean % Injected Dose/Gram): 0.4 %ID/g
tissue uptake at 2 h ([2]; lung, 120 min, read-out: Lung, Mean % Injected Dose/Gram): 0.46 %ID/g
tissue uptake at 2 min ([2]; muscle, 2 min, read-out: Muscle, Mean % Injected Dose/Gram): 0.12 %ID/g
tissue uptake at 0.5 h ([2]; muscle, 30 min, read-out: Muscle, Mean % Injected Dose/Gram): 0.13 %ID/g
tissue uptake at 1 h ([2]; muscle, 60 min, read-out: Muscle, Mean % Injected Dose/Gram): 0.04 %ID/g
tissue uptake at 2 h ([2]; muscle, 120 min, read-out: Muscle, Mean % Injected Dose/Gram): 0.08 %ID/g
washout from brain regions other than striatum [2]: rapid washout in all other brain regions
Bone, Mean % Injected Dose/Gram ([2]; 2 min): 0.28 % Injected Dose/Gram
Cerebell (C), Mean % Injected Dose/Gram ([2]; 2 min): 0.76 % Injected Dose/Gram
Cortex (Cx), Mean % Injected Dose/Gram ([2]; 2 min): 0.98 % Injected Dose/Gram
St/C (striatum to cerebellum ratio) ([2]; 2 min): 1.12
St/Cx (striatum to cortex ratio) ([2]; 2 min): 0.86
Striatum (St), Mean % Injected Dose/Gram ([2]; 2 min): 0.84 % Injected Dose/Gram
in vivo defluorination (from bone radioactivity) ([2]; 2 min to 120 min): stability of the 2β-fluoroisopropyl group to significant in vivo defluorination
St/C (striatum to cerebellum ratio) ([2]; 30 min): 2.42
St/Cx (striatum to cortex ratio) ([2]; 30 min): 1.38
St/C (striatum to cerebellum ratio) ([2]; 60 min): 3.63
St/Cx (striatum to cortex ratio) ([2]; 60 min): 2.13
Bone, Mean % Injected Dose/Gram ([2]; 120 min): 0.25 % Injected Dose/Gram
Cerebell (C), Mean % Injected Dose/Gram ([2]; 120 min): 0.14 % Injected Dose/Gram
Cortex (Cx), Mean % Injected Dose/Gram ([2]; 120 min): 0.26 % Injected Dose/Gram
St/C (striatum to cerebellum ratio) ([2]; 120 min): 3.71
St/Cx (striatum to cortex ratio) ([2]; 120 min): 2.0
Striatum (St), Mean % Injected Dose/Gram ([2]; 120 min): 0.50 % Injected Dose/Gram
St/Cx (striatum to cortex ratio) ([2]; 120 min, listed as [^18 F] FIPIT (8)): 2.00
tissue uptake at 2 min ([2]; spleen, 2 min, read-out: Spleen, Mean % Injected Dose/Gram): 1.58 %ID/g
tissue uptake at 0.5 h ([2]; spleen, 30 min, read-out: Spleen, Mean % Injected Dose/Gram): 0.64 %ID/g
tissue uptake at 1 h ([2]; spleen, 60 min, read-out: Spleen, Mean % Injected Dose/Gram): 0.4 %ID/g
tissue uptake at 2 h ([2]; spleen, 120 min, read-out: Spleen, Mean % Injected Dose/Gram): 0.38 %ID/g
tissue uptake at 2 min ([2]; striatum, 2 min, read-out: Striatum (St), Mean % Injected Dose/Gram): 0.84 %ID/g
tissue uptake at 0.5 h ([2]; striatum, 30 min, read-out: Striatum (St), Mean % Injected Dose/Gram): 0.73 %ID/g
tissue uptake at 1 h ([2]; striatum, 60 min, read-out: Striatum (St), Mean % Injected Dose/Gram): 0.58 %ID/g
tissue uptake at 2 h ([2]; striatum, 120 min, read-out: Striatum (St), Mean % Injected Dose/Gram): 0.5 %ID/g
tissue uptake at 2 min ([2]; testis, 2 min, read-out: Testis, Mean % Injected Dose/Gram): 0.14 %ID/g
tissue uptake at 0.5 h ([2]; testis, 30 min, read-out: Testis, Mean % Injected Dose/Gram): 0.68 %ID/g
tissue uptake at 1 h ([2]; testis, 60 min, read-out: Testis, Mean % Injected Dose/Gram): 0.17 %ID/g
tissue uptake at 2 h ([2]; testis, 120 min, read-out: Testis, Mean % Injected Dose/Gram): 0.19 %ID/g
brain region of highest uptake (basal ganglia/striatum) [3]: region of highest uptake in the brain
retention in basal ganglia (striatum) ([3]; 190 min following injection): prolonged retention with clear visualization at 190 min
striatal to cerebellum ratio (region of interest measurements) ([3]; 190 min post administration): 3.0
